Test results from patent publication US20020187514A1 (priority 1999, published 2002).

Tests used:
[1] = target: T1, Muscarinic, M4 (Homo sapiens, UniProt P08173); assay: biochemical; format: binding; details: read-out: Pass 1 (10^−5 M) % Inhibition
T1 construct: expressed in transfected cells

[2] = target: T2, Serotonin, 5HT5A (Homo sapiens, UniProt P47898); assay: biochemical; format: binding; details: read-out: Pass 1 (10^−5 M) % Inhibition
T2 construct: expressed in transfected cells

[3] = target: Adenosine, A1 (UniProt P25099); assay: Adenosine, A1; [3H]CPX; format: binding; details: 10^−5 M
[4] = target: Serotonin Transporter (Rattus norvegicus, UniProt P31652); assay: biochemical; format: binding; details: read-out: % Inhibiton (10^−5 M)
[5] = target: T3, Protein Tyrosine Phosphatase, PTP-LAR-D1 (Homo sapiens, UniProt P10586); assay: Protein Tyrosine Phosphatase, PTP-LAR-D1 (Human); substrate pNPP; format: biochemical; details: read-out: Pass 1 (10^−5 M) % Inhibition
T3 construct: PTP-LAR-D1

[6] = target: Neuropeptide, NPY2 (Homo sapiens, UniProt P49146); assay: biochemical; format: binding; details: read-out: Pass 1 (10^−5 M) % Inhibition
[7] = target: T4, Histamine, H1 (Bos taurus, UniProt P30546); assay: Histamine, H1; [3H]Pyrilamine; format: binding; details: read-out: Pass 1 (10^−5 M) % Inhibition
T4 construct: no other source notation after assay name denotes animal cell or animal tissue source; from tissue; host or cells: animal cell or animal tissue, not specified

[8] = tested on: Clozapine; format: binding
[9] = tested on: Sodium, Site 1; format: binding
[10] = target: Adenosine, A2 (UniProt P30543); assay: Adenosine, A2; [3H]CGS21680; format: binding
[11] = target: Benzodiazepine, peripheral (Homo sapiens, UniProt P30536); assay: biochemical; format: binding; details: read-out: Pass 1 (10^−5 M) % Inhibition
[12] = tested on: Leukotrine B4, LTB4; assay: Leukotrine B4, LTB4; [3H]LTB4; format: binding; details: 10^−5 M
[13] = target: Neuropeptide, NPY1 (Homo sapiens, UniProt P25929); assay: Neuropeptide, NPY1 (Human); [125I]PYY; format: binding; details: read-out: Pass 1 (10^−5 M) % Inhibition
[14] = tested on: Imidazoline, I2, central; assay: Imidazoline, I2, central; [3H]2-BFI; format: binding; details: 10^−5 M
[15] = tested on: Potassium Channel, Ca2+ Act., VS; assay: Potassium Channel, Ca2+ Act., VS; [125I]Charybdotoxin; format: binding; details: 10^−5 M
[16] = target: Muscarinic, M3 (Homo sapiens, UniProt P20309); assay: biochemical; details: read-out: Pass 1 (10^−5 M) % Inhibition
[17] = tested on: Atrial Natriuretic Peptide, ANP A; assay: Atrial Natriuretic Peptide, ANP A; [125I]ANP (Rat); format: binding
[18] = tested on: GABA Transaminase; assay: GABA Transaminase; substrate [14C]-GABA; format: biochemical
[19] = tested on: Calcium Channel, Type N; format: binding
[20] = tested on: Glutamate, NMDA Agonist Site; assay: Glutamate, NMDA Agonist Site; [3H]CGP 39653; format: binding; details: 10^−5 M
[21] = tested on: Choline Acetyltransferase; assay: Choline Acetyltransferase; substrate [14C]Acetyl Coenzyme; format: biochemical; details: 10^−5 M
[22] = tested on: Vasoactive Intestine Peptide, Non-selective; format: binding; details: 10^−5 M
[23] = target: T5, Adrenergic, Beta 1 (Homo sapiens, UniProt P08588); assay: Adrenergic, Beta 1 (Human Recombinant); [125I]Iodocyanopindolol; format: binding; details: read-out: Pass 1 (10^−5 M) % Inhibition
T5 construct: expressed in transfected cells

[24] = target: T6, Neurokinin, NK2 (NKA) (Homo sapiens, UniProt P21452); assay: biochemical; format: binding; details: read-out: Pass 1 (10^−5 M) % Inhibition
T6 construct: expressed in transfected cells

[25] = tested on: Imidazoline, I1; assay: Imidazoline, I1; [125I]-Clonidine; format: binding; details: 10^−5 M
[26] = target: T7, Monoamine Oxidase B, Peripheral (Rattus norvegicus, UniProt P19643); assay: Monoamine Oxidase B, Peripheral; substrate [14C]Phenylethylamine; format: biochemical; details: read-out: Pass 1 (10^−5 M) % Inhibition
T7 construct: no other source notation after assay name denotes animal cell or animal tissue source; from tissue

[27] = target: Dopamine Transporter (Cavia porcellus, UniProt H0WCX4); assay: biochemical; format: binding, Guinea Pig
[28] = tested on: Glutamate, NMDA, Glycine (Stry-insens Site); format: binding; details: 10^−5 M
[29] = target: Opiate, Kappa 1 (UniProt P41144); format: binding
[30] = tested on: Angiotensin II, AT2; format: binding; details: 10^−5 M
[31] = tested on: GABA-B; format: binding
[32] = target: T8, Cannabinoid, CB2 (Homo sapiens, UniProt P34972); assay: Cannabinoid, CB2 (Human recombinant); [3H]-CP55940; format: binding; details: read-out: Pass 1 (10^−5 M) % Inhibition
T8 construct: expressed in transfected cells

[33] = target: T9, Serotonin, 5HT4 (Cavia porcellus, UniProt O70528); assay: biochemical; format: binding; details: read-out: Pass 1 (10^−5 M) % Inhibition
T9 construct: no other source notation after assay name denotes animal cell or animal tissue source; from tissue; host or cells: animal cell or animal tissue, not specified

[34] = tested on: GABA A, Agonist Site; format: binding
[35] = target: Angiotensin II, ATI (Homo sapiens, UniProt P30556); assay: Angiotensin II, ATI (Human); [125I]-(Sar1-Ile8) Angiotensin; format: binding; details: read-out: Pass 1 (10^−5 M) % Inhibition
[36] = target: Adrenergic, Alpha 1B (UniProt P15823); assay: Adrenergic, Alpha 1B; [3H]-7-MeOxy-Prazosin; format: binding
[37] = target: Muscarinic, M2 (Homo sapiens, UniProt P08172); assay: biochemical; details: read-out: Pass 1 (10^−5 M) % Inhibition
[38] = target: T10, Histamine, H2 (Cavia porcellus, UniProt P47747); assay: biochemical; format: binding; details: read-out: Pass 1 (10^−5 M) % Inhibition
T10 construct: no other source notation after assay name denotes animal cell or animal tissue source; from tissue; host or cells: animal cell or animal tissue, not specified

[39] = target: T11, Adrenergic, Alpha 2C (Homo sapiens, UniProt P18825); assay: Adrenergic, Alpha 2C (Human Recombinant); [3H]MK-912; format: binding; details: read-out: Pass 1 (10^−5 M) % Inhibition
T11 construct: expressed in transfected cells

[40] = tested on: Acetylcholinesterase; assay: Acetylcholinesterase; substrate Acetylthiocholine; format: biochemical
[41] = target: T12, Monoamine Oxidase A, Peripheral (Rattus norvegicus, UniProt P21396); assay: biochemical; details: read-out: Pass 1 (10^−5 M) % Inhibition
T12 construct: no other source notation after assay name denotes animal cell or animal tissue source; from tissue

[42] = target: Adrenergic, Alpha 1A (UniProt P43140); assay: Adrenergic, Alpha 1A; [3H]-7-MeOxy-Prazosin; format: binding

Dopamine Transporter, sequence (H0WCX4 1-619): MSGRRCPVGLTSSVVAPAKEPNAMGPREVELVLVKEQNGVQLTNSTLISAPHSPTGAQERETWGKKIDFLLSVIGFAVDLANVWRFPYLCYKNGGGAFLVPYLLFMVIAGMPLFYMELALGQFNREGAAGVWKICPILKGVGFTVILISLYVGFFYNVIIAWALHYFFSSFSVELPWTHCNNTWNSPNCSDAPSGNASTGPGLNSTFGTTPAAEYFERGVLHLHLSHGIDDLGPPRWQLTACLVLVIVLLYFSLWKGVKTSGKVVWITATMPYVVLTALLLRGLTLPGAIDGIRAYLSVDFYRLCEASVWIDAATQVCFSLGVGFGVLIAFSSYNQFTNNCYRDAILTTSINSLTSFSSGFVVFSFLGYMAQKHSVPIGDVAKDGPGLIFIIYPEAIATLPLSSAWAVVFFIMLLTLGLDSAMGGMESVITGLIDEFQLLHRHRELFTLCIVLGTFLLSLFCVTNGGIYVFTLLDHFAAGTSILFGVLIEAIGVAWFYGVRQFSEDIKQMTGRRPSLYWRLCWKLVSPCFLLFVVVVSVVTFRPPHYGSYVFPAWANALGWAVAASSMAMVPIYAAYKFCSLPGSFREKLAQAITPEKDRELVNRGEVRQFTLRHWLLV
Adenosine, A2, sequence (P30543 whole entry): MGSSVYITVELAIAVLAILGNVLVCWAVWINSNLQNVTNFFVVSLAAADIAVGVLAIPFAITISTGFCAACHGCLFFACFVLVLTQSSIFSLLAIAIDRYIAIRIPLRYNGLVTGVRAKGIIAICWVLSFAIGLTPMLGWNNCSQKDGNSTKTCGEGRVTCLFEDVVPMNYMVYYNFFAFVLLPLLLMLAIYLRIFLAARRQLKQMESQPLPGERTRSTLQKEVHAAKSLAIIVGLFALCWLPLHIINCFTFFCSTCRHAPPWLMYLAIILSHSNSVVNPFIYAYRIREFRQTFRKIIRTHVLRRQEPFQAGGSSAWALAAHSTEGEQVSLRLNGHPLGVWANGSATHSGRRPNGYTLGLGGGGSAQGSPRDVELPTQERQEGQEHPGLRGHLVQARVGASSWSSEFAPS
Angiotensin II, ATI, sequence (P30556 whole entry): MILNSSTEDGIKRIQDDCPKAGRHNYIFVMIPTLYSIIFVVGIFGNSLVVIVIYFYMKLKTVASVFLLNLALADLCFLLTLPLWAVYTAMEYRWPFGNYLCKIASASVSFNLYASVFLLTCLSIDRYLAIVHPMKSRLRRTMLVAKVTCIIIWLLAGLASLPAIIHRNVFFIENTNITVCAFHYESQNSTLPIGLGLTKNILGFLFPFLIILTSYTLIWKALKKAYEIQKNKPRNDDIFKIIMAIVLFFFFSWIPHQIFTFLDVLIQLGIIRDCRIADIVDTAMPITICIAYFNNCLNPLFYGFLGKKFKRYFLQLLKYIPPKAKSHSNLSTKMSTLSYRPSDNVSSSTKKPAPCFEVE
T3 sequence (P10586 1352-1607): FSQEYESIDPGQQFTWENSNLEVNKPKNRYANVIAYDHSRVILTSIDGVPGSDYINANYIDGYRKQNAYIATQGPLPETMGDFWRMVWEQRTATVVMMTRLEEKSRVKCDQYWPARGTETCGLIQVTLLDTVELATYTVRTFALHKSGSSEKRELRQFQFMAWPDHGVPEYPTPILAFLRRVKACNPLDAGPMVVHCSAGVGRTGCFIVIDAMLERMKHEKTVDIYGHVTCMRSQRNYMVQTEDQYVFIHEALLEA
Neuropeptide, NPY1, sequence (P25929 whole entry): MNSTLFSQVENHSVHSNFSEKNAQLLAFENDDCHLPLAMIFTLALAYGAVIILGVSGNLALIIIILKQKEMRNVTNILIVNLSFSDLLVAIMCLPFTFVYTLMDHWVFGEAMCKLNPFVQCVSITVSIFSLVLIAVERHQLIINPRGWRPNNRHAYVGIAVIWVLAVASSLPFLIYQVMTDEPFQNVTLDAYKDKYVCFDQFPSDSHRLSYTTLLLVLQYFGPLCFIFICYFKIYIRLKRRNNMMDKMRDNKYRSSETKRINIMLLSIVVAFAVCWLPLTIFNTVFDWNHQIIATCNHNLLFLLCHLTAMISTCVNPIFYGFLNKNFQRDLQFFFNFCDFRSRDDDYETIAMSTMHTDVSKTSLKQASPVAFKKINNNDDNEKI
Benzodiazepine, peripheral, sequence (P30536 whole entry): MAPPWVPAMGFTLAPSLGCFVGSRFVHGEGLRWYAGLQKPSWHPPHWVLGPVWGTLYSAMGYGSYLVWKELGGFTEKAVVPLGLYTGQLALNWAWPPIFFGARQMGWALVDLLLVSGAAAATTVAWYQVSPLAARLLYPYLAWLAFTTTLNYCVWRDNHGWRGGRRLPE
T2 sequence (P47898 whole entry): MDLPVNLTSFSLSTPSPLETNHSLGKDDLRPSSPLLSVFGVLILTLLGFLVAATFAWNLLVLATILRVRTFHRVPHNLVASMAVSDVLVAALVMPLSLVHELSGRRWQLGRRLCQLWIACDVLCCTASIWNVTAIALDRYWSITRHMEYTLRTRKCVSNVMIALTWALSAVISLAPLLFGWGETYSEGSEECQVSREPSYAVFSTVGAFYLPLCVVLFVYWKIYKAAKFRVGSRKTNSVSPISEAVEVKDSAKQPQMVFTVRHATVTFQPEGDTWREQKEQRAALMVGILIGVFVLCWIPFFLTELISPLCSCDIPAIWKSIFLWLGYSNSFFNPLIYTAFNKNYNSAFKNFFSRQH
Serotonin Transporter, sequence (P31652 whole entry): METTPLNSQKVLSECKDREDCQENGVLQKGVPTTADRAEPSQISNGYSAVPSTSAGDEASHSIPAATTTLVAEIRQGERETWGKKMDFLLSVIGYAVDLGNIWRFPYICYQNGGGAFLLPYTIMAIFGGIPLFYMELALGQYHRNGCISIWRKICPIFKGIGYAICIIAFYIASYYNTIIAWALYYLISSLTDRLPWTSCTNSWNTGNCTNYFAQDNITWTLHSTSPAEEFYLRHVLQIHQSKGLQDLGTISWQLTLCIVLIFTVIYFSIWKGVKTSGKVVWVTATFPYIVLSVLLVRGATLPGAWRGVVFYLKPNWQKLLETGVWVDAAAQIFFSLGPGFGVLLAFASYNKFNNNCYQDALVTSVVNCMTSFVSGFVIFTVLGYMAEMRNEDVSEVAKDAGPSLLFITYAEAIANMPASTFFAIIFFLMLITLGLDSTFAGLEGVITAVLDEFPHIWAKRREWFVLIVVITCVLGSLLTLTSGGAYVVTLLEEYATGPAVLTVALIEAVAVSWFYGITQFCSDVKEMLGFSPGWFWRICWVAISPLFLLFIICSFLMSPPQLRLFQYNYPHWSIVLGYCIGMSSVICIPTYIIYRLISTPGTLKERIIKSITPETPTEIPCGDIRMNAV
Adrenergic, Alpha 1B, sequence (P15823 whole entry): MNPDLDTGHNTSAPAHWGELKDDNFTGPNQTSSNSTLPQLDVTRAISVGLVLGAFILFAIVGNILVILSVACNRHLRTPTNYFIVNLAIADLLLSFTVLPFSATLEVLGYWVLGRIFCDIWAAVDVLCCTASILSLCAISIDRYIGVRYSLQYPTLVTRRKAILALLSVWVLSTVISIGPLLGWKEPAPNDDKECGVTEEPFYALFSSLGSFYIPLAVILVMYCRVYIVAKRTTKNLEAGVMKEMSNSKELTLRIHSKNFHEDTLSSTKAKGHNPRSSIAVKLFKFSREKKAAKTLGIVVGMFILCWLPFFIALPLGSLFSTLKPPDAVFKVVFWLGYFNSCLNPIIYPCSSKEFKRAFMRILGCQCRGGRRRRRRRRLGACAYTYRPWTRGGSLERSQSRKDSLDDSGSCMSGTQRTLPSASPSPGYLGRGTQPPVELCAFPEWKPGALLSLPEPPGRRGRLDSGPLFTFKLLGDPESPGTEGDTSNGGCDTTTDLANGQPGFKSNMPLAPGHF
Neuropeptide, NPY2, sequence (P49146 whole entry): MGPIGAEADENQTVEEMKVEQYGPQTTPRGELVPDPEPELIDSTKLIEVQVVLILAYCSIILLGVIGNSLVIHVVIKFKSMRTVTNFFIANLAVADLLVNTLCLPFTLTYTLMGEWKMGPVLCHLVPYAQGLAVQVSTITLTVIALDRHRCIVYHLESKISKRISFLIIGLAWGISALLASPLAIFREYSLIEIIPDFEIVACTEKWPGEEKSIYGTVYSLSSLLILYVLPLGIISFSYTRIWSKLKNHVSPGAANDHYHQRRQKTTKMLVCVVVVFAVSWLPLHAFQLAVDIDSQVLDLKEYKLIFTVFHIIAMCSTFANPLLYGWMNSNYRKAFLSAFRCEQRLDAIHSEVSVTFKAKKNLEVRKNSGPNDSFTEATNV
T5 sequence (P08588 whole entry): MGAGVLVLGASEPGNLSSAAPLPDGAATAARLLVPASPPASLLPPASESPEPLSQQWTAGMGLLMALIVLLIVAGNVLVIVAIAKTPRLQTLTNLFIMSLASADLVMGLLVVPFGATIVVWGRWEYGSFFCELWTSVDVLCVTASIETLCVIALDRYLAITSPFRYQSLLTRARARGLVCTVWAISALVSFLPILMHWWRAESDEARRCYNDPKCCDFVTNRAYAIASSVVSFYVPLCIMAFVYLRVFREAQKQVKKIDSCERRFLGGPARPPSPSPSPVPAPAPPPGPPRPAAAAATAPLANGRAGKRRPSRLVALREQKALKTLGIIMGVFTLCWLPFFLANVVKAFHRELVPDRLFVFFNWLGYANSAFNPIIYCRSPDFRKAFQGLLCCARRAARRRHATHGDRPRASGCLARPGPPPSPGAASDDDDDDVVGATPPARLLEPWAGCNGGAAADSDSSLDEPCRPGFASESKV
T9 sequence (O70528 whole entry): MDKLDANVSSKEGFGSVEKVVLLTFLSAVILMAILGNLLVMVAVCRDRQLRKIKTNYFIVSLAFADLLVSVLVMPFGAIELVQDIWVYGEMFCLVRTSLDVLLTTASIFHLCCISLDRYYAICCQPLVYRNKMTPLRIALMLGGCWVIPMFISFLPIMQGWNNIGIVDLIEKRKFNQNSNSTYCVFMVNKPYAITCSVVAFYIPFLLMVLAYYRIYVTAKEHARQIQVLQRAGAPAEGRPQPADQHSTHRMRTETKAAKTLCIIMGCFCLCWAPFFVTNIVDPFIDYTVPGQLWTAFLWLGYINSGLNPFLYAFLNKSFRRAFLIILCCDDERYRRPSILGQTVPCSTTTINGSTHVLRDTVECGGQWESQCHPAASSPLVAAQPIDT

**Q.** How did the inhibition at 10 µM [1] turn out when `COC(=O)[C@H]1[C@@H](OC(=O)c2ccccc2)C[C@@H]2CC[C@H]1N2C` [cocaine] was run?
**A.** The inhibition at 10 µM was 0.42%.

**Q.** What about the inhibition at 10 µM [2] of the same compound?
**A.** Its inhibition at 10 µM is 12%.

**Q.** And the “Pass 1 (10^−5 M) % Inhibition” value [3]?
**A.** Its value is 2.29%.

**Q.** And the inhibition at 10 µM [4]?
**A.** The inhibition at 10 µM was 96.2%.

**Q.** And the inhibition at 10 µM [5]?
**A.** Its inhibition at 10 µM is 24.4%.

**Q.** What about the inhibition at 10 µM [6] of the same compound?
**A.** The inhibition at 10 µM was 4.27%.

**Q.** What about the inhibition at 10 µM [7] of the same compound?
**A.** Its inhibition at 10 µM is -19.7%.

**Q.** What about the “Pass 1 (10^−5 M) % Inhibition” value [8] of the same compound?
**A.** The value was 1.37%.

**Q.** What about the “Pass 1 (10^−5 M) % Inhibition” value [9] of the same compound?
**A.** The value was 2.74%.

**Q.** And the “Pass 1 (10^−5 M) % Inhibition” value [10]?
**A.** The value was 26.30%.

**Q.** And the inhibition at 10 µM [11]?
**A.** The inhibition at 10 µM was 0.51%.

**Q.** What about the “Pass 1 (10^−5 M) % Inhibition” value [12] of the same compound?
**A.** Its value is 17.06%.

**Q.** What about the inhibition at 10 µM [13] of the same compound?
**A.** The inhibition at 10 µM was 26.6%.

**Q.** What about the “Pass 1 (10^−5 M) % Inhibition” value [14] of the same compound?
**A.** Its value is 37.90%.

**Q.** And the “Pass 1 (10^−5 M) % Inhibition” value [15]?
**A.** The value was 16.63%.

**Q.** What about the inhibition at 10 µM [16] of the same compound?
**A.** The inhibition at 10 µM was -8.07%.

**Q.** What about the “Pass 1 (10^−5 M) % Inhibition” value [17] of the same compound?
**A.** The value was 11.36%.

**Q.** What about the “Pass 1 (10^−5 M) % Inhibition” value [18] of the same compound?
**A.** The value was 25.43%.

**Q.** And the “Pass 1 (10^−5 M) % Inhibition” value [19]?
**A.** Its value is 11.51%.

**Q.** What about the “Pass 1 (10^−5 M) % Inhibition” value [20] of the same compound?
**A.** Its value is 38.66%.

**Q.** What about the “Pass 1 (10^−5 M) % Inhibition” value [21] of the same compound?
**A.** Its value is 8.25%.

**Q.** What about the “Pass 1 (10^−5 M) % Inhibition” value [22] of the same compound?
**A.** The value was 30.71%.

**Q.** And the inhibition at 10 µM [23]?
**A.** The inhibition at 10 µM was 11.7%.

**Q.** And the inhibition at 10 µM [24]?
**A.** The inhibition at 10 µM was 13.7%.

**Q.** And the “Pass 1 (10^−5 M) % Inhibition” value [25]?
**A.** The value was −0.78%.

**Q.** What about the inhibition at 10 µM [26] of the same compound?
**A.** Its inhibition at 10 µM is -22.8%.

**Q.** What about the Ki [27] of the same compound?
**A.** The Ki was 321 nM.

**Q.** What about the inhibition at 10 µM ([27]; read-out: Pass 1 (10^−5 M) % Inhibition) of the same compound?
**A.** The inhibition at 10 µM was 91.4%.

**Q.** What about the “Pass 1 (10^−5 M) % Inhibition” value [28] of the same compound?
**A.** Its value is −1.56%.

**Q.** What about the “Pass 1 (10^−5 M) % Inhibition” value [29] of the same compound?
**A.** The value was 10.19%.

**Q.** What about the “Pass 1 (10^−5 M) % Inhibition” value [30] of the same compound?
**A.** The value was 5.85%.

**Q.** What about the “Pass 1 (10^−5 M) % Inhibition” value [31] of the same compound?
**A.** Its value is 24.90%.

**Q.** What about the inhibition at 10 µM [32] of the same compound?
**A.** Its inhibition at 10 µM is 0.78%.

**Q.** What about the inhibition at 10 µM [33] of the same compound?
**A.** Its inhibition at 10 µM is 22.1%.

**Q.** And the “Pass 1 (10^−5 M) % Inhibition” value [34]?
**A.** Its value is 5.81%.

**Q.** What about the inhibition at 10 µM [35] of the same compound?
**A.** Its inhibition at 10 µM is 21.2%.

**Q.** And the “Pass 1 (10^−5 M) % Inhibition” value [36]?
**A.** The value was −6.30%.

**Q.** And the inhibition at 10 µM [37]?
**A.** The inhibition at 10 µM was 3.57%.

**Q.** What about the inhibition at 10 µM [38] of the same compound?
**A.** Its inhibition at 10 µM is 28.8%.

**Q.** And the inhibition at 10 µM [39]?
**A.** Its inhibition at 10 µM is -5.94%.

**Q.** And the “Pass 1 (10^−5 M) % Inhibition” value [40]?
**A.** Its value is 8.18%.

**Q.** And the inhibition at 10 µM [41]?
**A.** The inhibition at 10 µM was 32.8%.

**Q.** What about the “Pass 1 (10^−5 M) % Inhibition” value [42] of the same compound?
**A.** The value was −1.18%.
